Measured values from US6780971B2, “Compositions for inhibiting the aggregation pathway of α-synuclein” (Panacea Pharmaceuticals, Inc., priority 2000, dated 2004).
“Also recorded” adds a separate entry of the source.

Assays:
α-synuclein = molecular target: T1, α-synuclein (Homo sapiens, UniProt P37840); assay: Tyrosine fluorescence assay of metal binding to α-synuclein; details: magnesium co-incubated with iron
T1 construct: His-6 (cleaved yes); made in house; host or cells: bacteria (IPTG-induced; Pro-Ex His 6 vector)
Protocol: Because iron binds to other proteins that form aggregates and iron is known to accumulate in Parkinson's disease, iron might bind directly to α-synuclein. To confirm this hypothesis, the interaction of iron with α-synuclein was tested using tyrosine fluorescence as an indicator of iron binding. […] Fluorescence of tyrosine has been used to monitor binding of metals to β-amyloid [Garzon-Rodriguez W. et al., Bioorg. Med. Chem. Let., 9:2243-2248 (1999), which is hereby incorporated by reference]. A similar approach was taken to analyze binding of iron to α-synuclein. Tyrosine has a fluorescence emission spectrum that has a peak emission of 310 nm when excited at 280 nm, respectively (FIG. 2A). It was observed that binding of iron reduced the fluorescence of the tyrosines in α-synuclein. […] The Hill coefficient was 1.0 (R^2=1.0, P<0.0001), indicating one binding site for iron with no cooperativity (FIGS. 2A & B). α-Synuclein was also tested for binding to other metals, including CuCl2, ZnCl2 and MgCl2. Because the C-terminus of α-synuclein has a region with 7 glutamates and 4 aspartates, which together could chelate iron, we created a deletion construct lacking the last 27 amino acids on α-synuclein and analyzed binding of this construct.
To monitor the binding profiles of Fe(II) and Mg(II) to α-synuclein in vitro we used changes of tyrosine fluorescence. Tyrosine fluorescence is used as an indicator of changes in protein conformation or binding of metals. Excitation of tyrosine at 280 nm elicits fluorescence that peaks at 310 nm for monomeric tyrosine, and at 350-400 nm for tyrosinate or dimeric tyrosine. The fluorescence spectrum of α-synuclein yielded fluorescence peaks at 310 and 400 nm. The peak at 400 nm cannot be explained by the presence of dimeric tyrosine, due to dimerization of α-synuclein, because dimerization of α-synuclein decreases the fluorescence at 400 nm, and tends to eliminate the peak at 400 nm.

A53T α-synuclein [1] = molecular target: T2, A53T α-synuclein (Homo sapiens, UniProt P37840, A53T); assay: Tyrosine fluorescence assay of metal binding to A53T α-synuclein
T2 construct: His-6 (cleaved yes); made in house; host or cells: bacteria (IPTG-induced; Pro-Ex His 6 vector)
Text: We also examined how the A53T mutation in human α-synuclein affected binding of iron and magnesium. […] Previous studies have shown that A53T mutation changes the conformation of α-synuclein by increasing its helical content (Polymeropoulos et al., Science, 276:2045-7(1997)). These conformational changes might also reduce binding of magnesium to α-synuclein.

[2] = molecular target: T3, wildtype recombinant α-synuclein (Homo sapiens, UniProt P37840); assay: Aggregation of recombinant wildtype α-synuclein (immunoblot, video densitometry, thioflavine-S); assay type: biochemical
T3 construct: His-6 (cleaved yes); made in house; host or cells: bacteria (IPTG-induced; Pro-Ex His 6 vector)
Protocol: Knowing that magnesium and iron induce opposing changes in α-synuclein tyrosine fluorescence, it is believed that binding of magnesium might convert α-synuclein to a conformation that resists aggregation perhaps by preventing β-pleated sheet formation. To test this, wildtype recombinant α-synuclein was incubated with 0-3 mM FeCl2 and 0 or 100 μM MgCl2 for 24 hrs at 37° C., then immunoblotting was performed for α-synuclein and quantified aggregation by video densitometry.

A53T α-synuclein [3] = molecular target: T2, A53T α-synuclein; assay: Iron-induced aggregation of recombinant A53T α-synuclein (immunoblot, video densitometry); assay type: biochemical; details: 0-3 mM FeCl2, 100 μM MgCl2, 24 hrs
Protocol: We incubated recombinant A53T α-synuclein with 0-3 mM FeCl2 and 0 or 100 μM MgCl2 for 24 hrs, then immunoblotted the α-synuclein and quantified aggregation by video densitometry.

primary cortical neurons [4] = assay: α-Synuclein aggregation in primary cortical neurons (immunoblot, video densitometry); assay type: cell-based, rat
Protocol: Immunoblotting: Cells were harvested with SDS lysis solution (2% SDS, 10 mM Tris, pH 7.4, 2 mM β-glycerol phosphate, 1 μM AEBSF). The amount of protein was determined using the BCA assay (Pierce), […] per lane was run on 14% SDS polyacrylamide gels and transferred to nitrocellulose (200 mAmp, 12 hrs). The nitrocellulose was then incubated 1 hr in 5% milk/PBS, washed, incubated overnight in 1° antibody, washed, then incubated 3 hrs in peroxidase coupled 2° antibody and developed with chemiluminescent reagent (NEN).
(§1) To test this, the inventors examined the ability of magnesium to inhibit α-synuclein aggregation in primary cortical neurons grown in cell culture. Primary cortical neurons were treated with 1 mM FeCl2 plus 0-1.5 mM MgCl2 for 3 days, the α-synuclein was immunublotted and the amount of aggregate determined by video densitometry. […] Doses as low as 0.5 mM of magnesium produced statistically significant reduction in formation of α-synuclein positive aggregates.

primary cortical neurons [5] = assay: Ubiquitin-positive α-synuclein aggregates in primary cortical neurons (immunoprecipitation, anti-ubiquitin immunoblot); assay type: cell-based, rat; details: 0.3 mM iron and 50 μM dopamine, 3 days
Protocol: The inventors also examined the amount of aggregates present using an antibody to ubiquitin. As set forth previously, the accumulation of high molecular weight ubiquitin adducts correlates with the formation of α-synuclein aggregates. Primary cortical neurons were treated as described above and the aggregates were immunoprecipitated with anti-α-synuclein antibody and immunoblotted with anti-ubiquitin antibody. An increase in ubiquitination of α-synuclein upon treatment with 0.3 mM iron and 50 μM dopamine for 3 days was observed. However, treating the cells with magnesium produced a statistically significant decrease in ubiquitin immunoreactivity with doses as low as 0.5 mM (n=3, P<0.0001). Thus, magnesium inhibits formation of ubiquitin positive α-synuclein aggregates in primary neurons.

[6] = test system: BE-M17 neuroblastoma cells over-expressing wild type α-synuclein; assay: α-Synuclein aggregation and inclusions in BE-M17 cells over-expressing wild type α-synuclein; assay type: cell-based, human; details: 1 mM FeCl2 plus 50 μM dopamine plus 1 mM MgCl2, 3 days
Protocol: Immunohistochemistry: For light microscopy, cells are fixed with 4% paraformaldehyde, washed, permeabilized by incubation for 30 min with 0.2% Triton-X 100, blocked with 5% dry milk/1 % goat serum/PBS, washed and then incubated overnight in 1° antibody (1:500). Development is with an ABC kit and 3′, 3′-diaminobenzidine as per manufacturer's directions (Vector, Burlingame, Calif.).
as §1
Next, whether magnesium also prevents formation of α-synuclein-positive inclusions in BE-M17 neurons stably over-expressing wildtype α-synuclein was investigated. The neurons were treated with 1 mM FeCl2 plus 50 μM dopamine plus 0 or 1 mM MgCl2 for 3 days, and then examined by immunocytochemistry using anti-α-synuclein and anti-ubiquitin antibodies.

[7] = test system: BE-M17 cells expressing the human A53T α-synuclein cDNA; assay: Aggregate formation in BE-M17 cells expressing A53T α-synuclein; assay type: cell-based
[8] = test system: primary cultures of cortical neurons; assay: Neuronal process length and inclusions in primary cultures of cortical neurons; assay type: cell-based, rat; details: 0.3 mM FeCl2 plus 50 μM dopamine plus 1-2 mM magnesium, 3 days
Protocol: How magnesium affected neurons from the central nervous system was also examined. Primary cultures of cortical neurons were treated with 0.3 mM FeCl2 plus 50 μM dopamine plus 0-2 mM MgCl2 for 3 days (a relatively low dose of iron was used to enable quantitation of neuronal processes). To quantify the amount of neuroprotection provided by magnesium, the percent of processes longer than 100 μm as a characteristic of cell viability was determined. […] Inclusions also formed in these neurons.

[9] = test system: BE-M17 neuroblastoma cells; assay: Neuroprotection against FeCl2 plus dopamine, MTT assay; details: 0.8 mM MgCl2, 2 days
Protocol: MTT and LDH toxicity assay: Cells were plated in 96 well dishes at 5000 cells/well in 100 μl growth medium. For the MTT assay, viability following 48 hrs of pharmacological treatment was analyzed by adding 0.5 mg/ml MTT (MTT, 3-[4,5-dimethylthiazol-2-yl]-2,5-diphenyltetrazolium bromide) and incubating at 37° C. for 3 hrs. Lysis buffer (100 μl of 20% SDS in 50% N, N-dimethylformamide) was then added and the plates are read at 540 nm after 24 hrs. For the lactate dehydrogenase (LDH) assay, viability following 24 hrs of pharmacological treatment was analyzed using MTS reagent and the Cytox 96 kit (Promega) according to manufacturer's directions.

SMILES: [Cl-].[Cl-].[Mg+2] [magnesium, MgCl2]
- effect of co-incubation on iron-induced quenching of tyrosine fluorescence (α-synuclein): did not prevent iron-induced quenching
- effect of A53T mutation on binding to α-synuclein (A53T α-synuclein [1]): abolish the interaction
- iron-induced formation of high molecular weight aggregates of α-synuclein ([2]; 0-3 mM FeCl2, 100 μM (0.1 mM) MgCl2, 24 hrs, 37° C.): striking reduction in formation of high molecular weight aggregates; also recorded: inhibits iron-induced aggregation
- spontaneous aggregation of α-synuclein ([2]; separate experiments, no iron): inhibited spontaneous aggregation
- magnesium required to inhibit α-synuclein aggregation in vitro ([2]; stated as MgSO4 clinical range): 0.5 to 2 mM
- iron-induced aggregation of A53T α-synuclein (A53T α-synuclein [3]): unable to inhibit iron-induced aggregation
- lowest dose producing statistically significant reduction of α-synuclein positive aggregates (primary cortical neurons [4]; 1 mM FeCl2, 3 days): 0.5 mM
- formation of high molecular weight α-synuclein aggregates (primary cortical neurons [4]; 1 mM FeCl2, magnesium 0.2 to 1.5 mM, 3 days): dose-dependent reduction
- lowest dose producing statistically significant decrease in ubiquitin immunoreactivity (primary cortical neurons [5]): 0.5 mM
- α-synuclein-positive inclusions (immunocytochemistry) [6]: little accumulation of α-synuclein-positive inclusions
- aggregate formation [7]: unable to inhibit aggregate formation
- formation of α-synuclein-positive inclusions [8]: did not exhibit any formation of α-synuclein-positive inclusions
- loss of neuronal processes over 100 μm [8]: 20%
- increase in cell survival versus Fe2+/dopamine alone ([9]; control (vector) cell line): 1.3 fold
- increase in cell survival versus Fe2+/dopamine alone ([9]; wildtype α-synuclein cell line): 2.4 fold
